Data reported in PMC9225712, “Rational design of biodegradable sulphonamide candidates treating septicaemia by synergistic dual inhibition of COX-2/PGE2 axis and DHPS enzyme” (Journal of Enzyme Inhibition and Medicinal Chemistry, 2022).
Marks after values point to notes of the source that are not given here.

Key:
ovine COX-1 = molecular target: T1, ovine COX-1 (Ovis aries, UniProt P05979); experiment: In vitro COX-1 enzymatic assay (Cayman kit 560131); assay type: biochemical; settings: Mean ± SEM of triplicate determinations
T1 construct: purchased Cayman Chemicals Inc. 560131
T1 sequence (P05979 25-600): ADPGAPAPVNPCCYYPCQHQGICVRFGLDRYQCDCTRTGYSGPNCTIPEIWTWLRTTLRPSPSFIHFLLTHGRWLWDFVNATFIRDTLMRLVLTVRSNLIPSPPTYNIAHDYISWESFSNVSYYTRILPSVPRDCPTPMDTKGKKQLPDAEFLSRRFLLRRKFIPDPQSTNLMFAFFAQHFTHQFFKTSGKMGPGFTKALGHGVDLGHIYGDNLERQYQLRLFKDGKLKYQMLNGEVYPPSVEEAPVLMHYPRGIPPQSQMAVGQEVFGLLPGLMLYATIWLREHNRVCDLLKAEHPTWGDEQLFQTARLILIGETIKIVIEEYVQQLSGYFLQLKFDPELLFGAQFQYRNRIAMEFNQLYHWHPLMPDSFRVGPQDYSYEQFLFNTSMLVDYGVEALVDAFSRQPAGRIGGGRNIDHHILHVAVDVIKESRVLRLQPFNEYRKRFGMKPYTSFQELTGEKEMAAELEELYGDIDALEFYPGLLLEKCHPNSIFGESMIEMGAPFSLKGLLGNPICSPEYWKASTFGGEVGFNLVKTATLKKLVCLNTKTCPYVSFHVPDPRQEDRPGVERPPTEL

[1] = test system: Salmonella typhi (RCMB 0100104); experiment: Inhibition zone, agar cup diffusion; assay type: cell-based; settings: Salmonella enterica, 24 h, read-out: inhibition zones (IZ) S. typhi
[2] = test system: Shigella dysenteriae (RCMB 0100542); experiment: Inhibition zone, agar cup diffusion; assay type: cell-based; settings: RCMB0100542, 24 h, read-out: inhibition zones (IZ) S. dysenteriae
[3] = test system: Gram-positive and Gram-negative bacteria; experiment: In vitro antibacterial screening, whole panel; assay type: cell-based; settings: whole bacterial panel, result in words
[4] = test system: Staphylococcus aureus (RCMB 0100183); experiment: Inhibition zone, agar cup diffusion; settings: RCMB0100183, 24 h, read-out: inhibition zones (IZ) S. aureus
[5] = test system: Staphylococcus epidermidis (RCMB 0100183); experiment: Inhibition zone, agar cup diffusion; settings: RCMB0100183, 24 h, read-out: inhibition zones (IZ) S. epidermidis
[6] = test system: Streptococcus mutans (RCMB 0100172); experiment: Inhibition zone, agar cup diffusion; settings: RCMB0100172, 24 h, read-out: inhibition zones (IZ) S. mutans
[7] = test system: Bacillus subtilis (RCMB 0100162); experiment: Inhibition zone, agar cup diffusion; settings: RCMB0100162, 24 h, read-out: inhibition zones (IZ) B. subtillis
[8] = test system: Pseudomonas aeruginosa (RCMB 0100243); experiment: Inhibition zone, agar cup diffusion; settings: RCMB0100243, 24 h, read-out: inhibition zones (IZ) P.aeruginosa
[9] = test system: Escherichia coli (RCMB 010052); experiment: Inhibition zone, agar cup diffusion; settings: RCMB010052, 24 h, read-out: inhibition zones (IZ) E.coli
[10] = test system: Proteus vulgaris (RCMB 010085); experiment: Inhibition zone, agar cup diffusion; settings: RCMB010085, 24 h, read-out: inhibition zones (IZ) P. vulgaris
human recombinant COX-2 = molecular target: T2, human recombinant COX-2 (Homo sapiens, UniProt P35354); experiment: In vitro COX-2 enzymatic assay (Cayman kit 560131); settings: for SI COX-1/COX-2: COX-2 selectivity index: COX-1 IC50/COX-2 IC50
T2 sequence (P35354 18-604): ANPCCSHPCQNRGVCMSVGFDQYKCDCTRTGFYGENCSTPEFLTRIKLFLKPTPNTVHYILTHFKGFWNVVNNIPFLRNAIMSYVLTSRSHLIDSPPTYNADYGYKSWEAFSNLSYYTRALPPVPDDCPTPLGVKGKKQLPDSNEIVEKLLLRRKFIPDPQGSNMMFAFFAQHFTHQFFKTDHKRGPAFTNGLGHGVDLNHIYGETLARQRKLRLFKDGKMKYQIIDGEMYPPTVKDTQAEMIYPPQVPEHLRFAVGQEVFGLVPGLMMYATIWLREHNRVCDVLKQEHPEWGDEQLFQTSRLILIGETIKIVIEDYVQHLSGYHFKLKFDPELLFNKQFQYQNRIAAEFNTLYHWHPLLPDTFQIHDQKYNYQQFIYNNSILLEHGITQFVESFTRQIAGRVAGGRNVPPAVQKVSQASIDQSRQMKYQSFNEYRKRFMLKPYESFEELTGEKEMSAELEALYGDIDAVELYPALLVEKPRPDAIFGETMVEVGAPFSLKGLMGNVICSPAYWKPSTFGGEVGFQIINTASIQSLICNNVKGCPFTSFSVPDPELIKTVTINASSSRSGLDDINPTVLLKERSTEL

gastric layers = experiment: Gastric ulcerogenic activity; settings: fasted male Wistar rats, oral 30 µmol/kg twice at 4 h interval
PGE2 = experiment: Estimation of rat plasma PGE2; settings: po 10 µmol/kg b.wt., 8 h after carrageenan
[11] = test system: carrageenan-induced paw edoema; experiment: Carrageenan-induced paw edoema in mice

Row | Structure (SMILES) | IC50 (ovine COX-1) | zone of inhibition at 1000 µg/mL [1] | zone of inhibition at 1000 µg/mL [2] | in vitro antibacterial activity [3] | zone of inhibition at 1000 µg/mL [4] | zone of inhibition at 1000 µg/mL [5] | zone of inhibition at 1000 µg/mL [6] | zone of inhibition at 1000 µg/mL [7] | zone of inhibition at 1000 µg/mL [8] | zone of inhibition at 1000 µg/mL [9] | zone of inhibition at 1000 µg/mL [10] | IC50 (human recombinant COX-2) | SI COX-1/COX-2 (human recombinant COX-2) | further results
1 | Cc1ccnc(NS(=O)(=O)c2ccc(/N=N/c3ccc(O)c(C(=O)N4CCCCC4)c3)cc2)n1 [Compound 5k, 4-((4-Hydroxy-3-(piperidine-1-carbonyl)phenyl)diazenyl)-N-(4-methylpyrimidin-2-yl) benzenesulfonamide] | 10.3 ± 0.08 µM | 14 mm | 25 mm | weak in vitro antibacterial activity | 19 mm | 32 mm | 28 mm | 18 mm | 14 mm | 16 mm | 19 mm | 0.09 ± 0.0003 µM | 111.9 | –
2 | O=C(c1cc(N=Nc2ccc(S(=O)(=O)Nc3nccs3)cc2)ccc1O)N1CCOCC1 [Compound 5m, 4-((4-Hydroxy-3-(morpholine-4-carbonyl)phenyl)diazenyl)-N-(thiazol-2-yl)benzenesulfonamide] | 9.9 µM | 16 mm | 24 mm | weak in vitro antibacterial activity | 25 mm | 33 mm | 29 mm | 20 mm | 18 mm | 18 mm | 16 mm | 0.1 ± 0.0008 µM | 102.1 | –
3 | O=C(O)Cc1ccccc1Nc1c(Cl)cccc1Cl [Diclofenac sodium, reference compound] | – | – | – | – | – | – | – | – | – | – | – | – | – | Gastric ulcerogenic effect, histopathological examination of gastric layers (gastric layers): erosion in the gastric layers; Gastric ulcerogenic effect, monitoring of isolated stomachs (gastric layers): signs of gastric ulcers and hyperaemia; % inhibition of PGE2-production (PGE2; rat serum): 79.10%; PGE2 serum conc. (PGE2; rat, Mean ± SEM, n = 5): 276.052 ± 5.60 pg/mL; ED50 ([11]; Mus musculus, 8 h, read-out: ED50 (95% confidence level)): 11.5 µmol/kg; Thickness of edoema 0h ([11]; mice, po 10 µmol/kg b.wt., 0 h (before carrageenan), Mean ± SEM, n = 5): 0.69 ± 0.004 mm; percentage anti-inflammatory activity (AI%) 2h ([11]; mice, po 10 µmol/kg b.wt., 2 h): (-11.58%); Thickness of edoema 2h ([11]; mice, po 10 µmol/kg b.wt., 2 h after carrageenan, Mean ± SEM, n = 5): 1.06 ± 0.03^c mm; percentage anti-inflammatory activity (AI%) 4h ([11]; mice, po 10 µmol/kg b.wt., 4 h): (38.19%); Thickness of edoema 4h ([11]; mice, po 10 µmol/kg b.wt., 4 h after carrageenan, Mean ± SEM, n = 5): 0.89 ± 0.01^c mm; percentage anti-inflammatory activity (AI%) 6h ([11]; mice, po 10 µmol/kg b.wt., 6 h): (60.98%); Thickness of edoema 6h ([11]; mice, po 10 µmol/kg b.wt., 6 h after carrageenan, Mean ± SEM, n = 5): 0.80 ± 0.01^c mm; Thickness of edoema 8h ([11]; mice, po 10 µmol/kg b.wt., 8 h after carrageenan, Mean ± SEM, n = 5): 0.71 ± 0.01^c mm
4 | O=C(O)c1cc(/N=N/c2ccc(S(=O)(=O)Nc3ccccn3)cc2)ccc1O [Sulfasalazine, reference compound] | – | – | – | – | – | – | – | – | – | – | – | – | – | ED50 (S. aureus Smith; Staphylococcus aureus, in Mus musculus, read-out: ED50 against S. aureus infection): 314 µmol/kg; ED50, protective effect against bacteremic infection, Staphylococcus aureus (S. aureus Smith; mice, challenge dose 9.5x10^6 CFU/mouse ip, intragastric once a day for 7 days, survival): 313.7 µmol/kg/day; ED50 (E. coli C11; Escherichia coli, C11, in Mus musculus, read-out: ED50 against E.coli infection): 419 µmol/kg; ED50, protective effect against bacteremic infection, Escherichia coli (E. coli C11; mice, challenge dose 7.1x10^3 CFU/mouse ip, intragastric once a day for 7 days, survival): 419.2 µmol/kg/day
